For one series, the system named is blood stage parasites. More on the design: method as in PMID 26248369. The settings on record: read-out: IC50 against blood stage parasites; cited from earlier work.
The target in series [1] is T1, PfHT (Plasmodium falciparum, UniProt Q7KWJ5).
T1 sequence (Q7KWJ5 1-504): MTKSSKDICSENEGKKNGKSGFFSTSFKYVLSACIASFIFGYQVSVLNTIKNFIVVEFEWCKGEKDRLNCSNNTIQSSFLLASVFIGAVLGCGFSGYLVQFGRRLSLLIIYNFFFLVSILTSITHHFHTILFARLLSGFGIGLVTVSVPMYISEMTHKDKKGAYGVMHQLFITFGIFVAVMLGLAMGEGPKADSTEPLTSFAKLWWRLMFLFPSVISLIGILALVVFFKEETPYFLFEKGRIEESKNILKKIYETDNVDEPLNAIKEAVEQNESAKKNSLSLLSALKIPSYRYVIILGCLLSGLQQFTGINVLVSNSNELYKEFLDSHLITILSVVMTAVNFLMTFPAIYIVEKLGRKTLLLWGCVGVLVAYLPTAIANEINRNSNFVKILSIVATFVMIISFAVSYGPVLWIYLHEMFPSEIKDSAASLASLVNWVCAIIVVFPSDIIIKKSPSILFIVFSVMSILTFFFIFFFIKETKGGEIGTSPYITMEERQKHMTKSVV
Briefly: Kinetic analysis of 2-DG uptake (Km) in HEK293 cells overexpressing PfHT.

Series [2] deals with T2, FTPfHT (Plasmodium falciparum, UniProt Q7KWJ5).
T2 sequence (Q7KWJ5 1-504): T1 sequence (Q7KWJ5 1-504)
Briefly: Kinetic analysis of 2-DG uptake (Km) in HEK293 cells overexpressing FTPfHT. More on the design: the 38–40 kDa band represents full length PfHT; expressed in transfected cells; host or cells: HEK293-FLIP (HEK293). The series is classed as cell-based. The note with it: average of Expt 1-3.

The subject of another series is GLUT1 Y293I. On the set-up: method as in PMID 8157690. The settings on record: GLUT1 Y293I vs wild type; cited from earlier work.
The target of series [3] is T1, PfHT. Nature of the series: 2-DG uptake by HEK293 cells overexpressing PfHT. The series is classed as cell-based. On the set-up: expressed in transfected cells; host or cells: HEK293 (HEK293-FLIP, native hGLUT1 knocked down by shRNA). The source says: (§1) Generation of HEK293 cells overexpressing PfHT and human GLUTs 1–4 were described elsewhere. Briefly, HEK293 cells were transfected with pcDNA3.1 FLII12Pglu-7006 (Addgene), containing the fluorescence resonance energy transfer (FRET) glucose sensor (HEK293-FLIP) and PfHT, human GLUT1 (hGLUT1), hGLUT2, hGLUT3, hGLUT4, hGLUT5 or hGLUT8 using Optifect (Life Technologies) according to manufacturer’s specifications. To increase retention of GLUT8 at the plasma membrane, the dileucine sorting signal E^7E^8XXXLL was modified to R^7R^8XXXLL as described in [17]. Stable transfectants were selected for G418 and hygromycin resistance to select for FRET sensor and hexose transporter, respectively. HEK293-FLIP cells were also used to generate cells stably transfected with FLAG-tagged PfHT (FTPfHT). FLAG tag ([…]) followed by a triple glycine linker and a tobacco etch virus (TEV) protease site (ENLYFQS) followed by a triple glycine linker was added to the N-terminus of PfHT via PCR [18] using Phusion Hot Start II High-Fidelity DNA Polymerase (Fisher Scientific). Single clones were selected by comparing their abilities to transport glucose as assayed via FRET and radiolabeled hexose uptake. In all cell lines, except for HEK293 cells overexpressing hGLUT1 and hGLUT5, native hGLUT1 was knocked down using shRNA as described elsewhere. Transcript levels of the individual GLUTs expressed in each cell line are as described in [13, 15] and in S1 Fig.
(§2) Glucose uptake by P. falciparum was performed essentially as described. P. falciparum strain 3D7 was cultured in 100 mm tissue culture dishes (Techno Plastic Products) in a 2% suspension of human erythrocytes and RPMI 1640 medium until reaching > 7.5% parasitemia. Cells were pelleted via centrifugation and resuspended in RPMI 1640 medium. To determine the uptake of radiolabeled glucose into the parasite, parasites were isolated from infected erythrocytes by permeablization with saponin (0.05 w/v), followed by centrifugation, aspiration of supernatant and washing of the pellet 3X with saline solution (135 mM NaCl, 2 mM KCl, 25 mM HEPES, 0.2 mM glucose and 1 mM MgCl2; pH 7.1) to remove cellular debris. WU-1 or DMSO vehicle were added to 100 μl parasites (resuspended in saline) 5 min prior to the addition of 100 μl [^14C]2-DOG (0.2- μCi/ml final concentration). 2-DG uptake was stopped after 2 min by layering the entire reaction over 300 μl of an oil mixture (5:4 mix of dibutyl phthalate / dinonyl phthalate) in Eppendorf tubes and centrifuged at 15,850 × g for 2 mins. The ratio of the estimated intracellular concentration of radiolabel relative to the extracellular concentration were calculated as described. Uptake of radiolabeled hexose into HEK293 cells was measured in glucose-free HBSS as described previously. Briefly, cells were plated at 400,000 cells/well overnight at 37°C in 24-well plates pre-treated with PEI. After 30-min incubation at 37°C in glucose-free HBSS in the presence of vehicle or increasing concentrations of compound, 2-DG uptake was measured in glucose-free HBSS for 4 min at 37°C. Cultures were washed in ice-cold 1X PBS and lysed in 0.1% Triton X-100 in 1X PBS. Radiolabeled hexose uptake was determined by liquid scintillation counting (Ultima Gold, Thermo Fisher) and normalized to total protein per well. Uptake data are plotted as percent uptake relative to vehicle-treated cells. Kinetic analyses were performed using the indicated concentrations of substrate and WU-1, with quenching of uptake after 1 min incubation. Incubation times had been previously determined as being in the linear range of time-dependent radiolabeled hexose uptake (2 min for 2-DG uptake into freed parasites; 2 and 4 min for D-Frc and 2-DG uptake HEK cell lines, respectively). Data were fit by least squares nonlinear regression analysis using GraphPad Prism 6.0 software.

Series [4] addresses T2, FTPfHT. Nature of the series: 2-DG uptake by HEK293 cells overexpressing FLAG-tagged PfHT (FTPfHT). The series is classed as cell-based. On the set-up: the 38–40 kDa band represents full length PfHT; expressed in transfected cells; host or cells: HEK293-FLIP (HEK293); key to 2-DG Uptake AVE: % uptake relative to vehicle-treated cells.
Excerpt: as §1, §2

Substrate in series [5]: O=CC[C@@H](O)[C@H](O)[C@H](O)CO
Nature of the series: cells, lysate or membranes. The note with it: other: 2-DG uptake (1 min), FTPfHT; pH 7.1; 37.0 °C. The series is classed as cell-based, Plasmodium falciparum.

Substrate in series [6]: O=CC[C@@H](O)[C@H](O)[C@H](O)CO
Briefly: cells, lysate or membranes. The note with it: other: 2-DG uptake (1 min), PfHT; pH 7.1; 37.0 °C.

Where “and” joins values, the source holds several entries; their conditions need not be identical. Equal values may be shown once. Read-outs that look alike come from different tables or passages of the source.

A word on the IC50: it is the point on the concentration scale where inhibition reaches its midpoint. The Km is the substrate concentration at which the rate is half of its maximum.

Turning to `Cc1cccc(C)c1OCC(=O)N[C@@H](Cc1ccccc1)[C@@H](O)C[C@H](Cc1ccccc1)NC(=O)[C@H](C(C)C)N1CCCNC1=O` [lopinavir], in the series on blood stage parasites, the IC50 is 0.016 mM.
Consider `O=C(CO)[C@@H](O)[C@H](O)[C@H](O)CO` [D-frc], for which the “Km (1/v) D-frc uptake: AVE IC50” value at PfHT [1] (average of Expt 1-3) turned out to be 1.83 mM; on FTPfHT [2], 2.07 mM. For the same molecule, at PfHT [1] (single experiments Expt 1-3), the “Km (1/v) D-frc uptake: IC50” value was 2.5 mM and 1.6 mM and 1.38 mM.
Take `CC1OC[C@H]2O[C@H](O)[C@H](O)[C@@H](O)[C@@H]2O1` (stereo partly drawn) [Ethylideneglucose, 4,6-O-ethylidene-α-D-glucose, reference compound]: in the series on GLUT1 Y293I, the “decrease of Ki by Y293I mutation” value is on record as over 2 fold. The IC50 at PfHT [3] (PfHT, 2-DG Uptake, average of Expt 1-3, read-out: AVE IC50) is 5.79 mM; on PfHT [3] (PfHT, 2-DG Uptake, single experiments Expt 1-3, read-out: IC50), 5.99 mM; on PfHT [3] (read-out: IC50 for inhibition of 2-DG uptake, HEK293 cells overexpressing PfHT), 5.9 ± 0.15 mM; at FTPfHT [4] (FTPfHT, 2-DG Uptake, single experiments Expt 1-3, read-out: IC50), 1.49 mM and 1.83 mM and 1.17 mM; on FTPfHT [4] (read-out: IC50 for inhibition of 2-DG uptake, HEK293 cells overexpressing FTPfHT) it was 1.5 ± 0.2 mM. Also, the “2-DG Uptake AVE” value at PfHT [3] (PfHT, concentration 0.001 mM, Expt 1-3) was 100.00; on PfHT [3] (PfHT, concentration 0.3125 mM) it was 94.37 and 96.75 and 86.10; on PfHT [3] (PfHT, concentration 0.625 mM) it was 89.78 and 84.91 and 77.97; on PfHT [3] (PfHT, concentration 1.25 mM) it was 82.38 and 77.88 and 79.22; on PfHT [3] (PfHT, concentration 2.5 mM), 70.45 and 76.21 and 65.14; at PfHT [3] (PfHT, concentration 5 mM), 56.80 and 57.04 and 54.41. The “2-DG Uptake AVE” value on PfHT [3] (PfHT, concentration 10 mM) is 38.62 and 35.32 and 38.49; on PfHT [3] (PfHT, concentration 20 mM), 25.77 and 23.49 and 21.21; at PfHT [3] (PfHT, concentration 40 mM), 17.24 and 14.68 and 18.76; at PfHT [3] (PfHT, concentration 80 mM), 11.01 and 10.15 and 11.14; on PfHT [3] (PfHT, concentration 160 mM), 6.85 and 7.66 and 8.85; at PfHT [3] (PfHT, concentration 320 mM), 4.36 and 4.29 and 5.25. In addition, the “2-DG Uptake AVE” value is 100.00 on FTPfHT [4] (FTPfHT, concentration 0.001 mM, Expt 1-3); 96.35 at FTPfHT [4] (FTPfHT, concentration 0.0390625 mM); 89.02 and 99.10 and 95.29 at FTPfHT [4] (FTPfHT, concentration 0.078125 mM); 83.11 and 96.24 and 85.58 at FTPfHT [4] (FTPfHT, concentration 0.15625 mM); 83.21 and 82.95 and 84.08 at FTPfHT [4] (FTPfHT, concentration 0.3125 mM); 73.60 and 68.20 and 76.54 at FTPfHT [4] (FTPfHT, concentration 0.63 mM). The “2-DG Uptake AVE” value is 62.34 and 52.24 and 56.96 on FTPfHT [4] (FTPfHT, concentration 1.25 mM); 40.70 and 31.77 and 32.91 at FTPfHT [4] (FTPfHT, concentration 2.5 mM); 18.95 and 15.78 and 18.06 at FTPfHT [4] (FTPfHT, concentration 5 mM); 13.87 and 9.18 and 10.65 on FTPfHT [4] (FTPfHT, concentration 10 mM); 7.63 and 6.14 and 7.00 on FTPfHT [4] (FTPfHT, concentration 20 mM); 5.44 and 4.46 and 5.15 at FTPfHT [4] (FTPfHT, concentration 40 mM). Also, at FTPfHT [4] (FTPfHT, concentration 80 mM), the “2-DG Uptake AVE” value was 5.14 and 3.60.

B1: FTPfHT (Plasmodium falciparum 3D7) (protein)
chain: T1 sequence (Q7KWJ5 1-504)
notes: the 38–40 kDa band represents full length PfHT; expressed in transfected cells; host or cells: HEK293-FLIP (HEK293)
On to B1, for which the Km in series [5] was determined as 2100 ± 500 µM.

B2: PfHT (Plasmodium falciparum 3D7) (protein)
chain: T1 sequence (Q7KWJ5 1-504)
Regarding B2, the Km in series [6] came to 1800 ± 300 µM.

The values are drawn from publication PMC6508677, “Identification of druggable small molecule antagonists of the Plasmodium falciparum hexose transporter PfHT and assessment of ligand access to the glucose permeation pathway via FLAG-mediated protein engineering” (PLoS ONE, 2019).
